Data: patent US10422787B2, “System and method for single molecule detection” (ARIZONA BOARD OF REGENTS on behalf of ARIZONA STATE …, priority 2015, dated 2019)

System: cyclic RGD peptide
Assay: STM experiment, gold probe functionalized with RGD peptide over bare gold substrate
Assay type: binding
Details: 100 nM protein, starting gap 2.7 nm
Description: Accordingly, in some embodiments, functionalizing just one of a pair of electrodes generates a unique electrical recognition signal for a corresponding molecule(s). To do this, a scanning tunneling microscope (STM) was used (see STM, FIG. 5A), where a gold probe 51 was functionalized with the RGD peptide 53 via the chemical interaction between the cysteine residue and the gold. The probe was positioned at a set point bias (V) and current (I) such that the apex of the probe was held approximately 2.7 nm above a bare gold substrate, 52. As the probe was pulled away an extra distance ΔZ from the surface, a decaying current could be observed during some of the experiments (e.g., feature 57 in FIG. 5B). However, in the absence of the αVβ3 integrin, no other features were observed, even if fairly high concentrations (e.g., 100 nM) of a protein such as BSA were added to the solution in the STM. Once 100 nM αVβ3 integrin 56 was added to the solution, a new feature appeared as a current peak away from the origin 58 in FIG. 5B.
In contrast to conventional tunneling signals, these signals peak when the probe is some distance away from the surface, signifying that the probe has captured a conductive particle.

“αvβ3: ~200 kD αVβ3 extracelluar domain of human integrin, target protein bound by cyclic RGD peptide” was tested, and the “current peak features on probe withdrawal” value was “many tens of picoamps”.
